Data reported in patent publication US7879835B2 (Korea Research Institute of Chemical Technology, priority 2004, dated 2011).

Experiments:
[1] = system: osteoclast (TRAP-positive multinuclear cell) formation; test: Inhibitory effect on osteoclast formation (TRAP staining); type: cell-based, mice; conditions: 8 days culture with M-CSF and RANKL, compared to control
Summary of the method: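 Non-adherent bone marrow cells from 7–9-week-old female mice, 2×10^5 per well, cultured 8 days with M-CSF (20 ng/ml), RANKL (30 ng/ml) and compound at 0.3, 1.0 or 3 μM. Formation scored by TRAP staining after fixation, 1 h at 37 °C, pH 5.0.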

[2] = In vitro pharmacokinetics: metabolic stability in liver microsome; type: in vitro ADME; conditions: human liver microsome 1 mg/ml, 20 μM compound
Procedure: Metabolic stabilities of the compounds of the Examples were examined by employing microsome samples prepared from the human liver.
Each 20 μM of the compounds were reacted with 1 mg/ml of liver microsome and the half-lives and one-hour stabilities of the compounds were determined.

rats = test: In vivo acute toxicity test (LD50); conditions: single dose, 2 weeks observation
Procedure: In order to determine the acute toxicities of the compounds prepared in Examples, 6-week old specific pathogen-free (SPF) rats each weighing […] were divided into groups of 10 rat each.
In case of subcutaneous administration, each of the compounds was dissolved in 5% PEG400 solution to a concentration of 20 mg/ml, the resulting solution was serially diluted with 5% PEG400 solution to concentrations of 5, 2.5, 1.25 and 0.625 mg/ml, and the dilutions were subcutaneously injected once to the rats at a dose of 10 ml/kg body weight.
In case of oral administration, each of the compounds was dissolved in soybean oil to a concentration of 180 mg/ml, the resulting solution was serially diluted with soybean oil to concentrations of 80, 20 and 5 mg/ml, and the dilutions were orally administered once to the rats at a dose of 20 ml/kg body weight. […]
During 2 weeks after the administration of the compounds, the death rate, clinical symptoms and weight changes of the rats were observed, and hematological and biochemical tests on blood samples were performed. Then, the rats were sacrificed and the internal organs were visually examined to check any abnormal signs in the organs of chest and abdomen.

osteoclasts = test: Inhibitory effect on resorption activity of osteoclast (resorption pit area on calcium phosphate-coated plate); type: cell-based, mice; conditions: compared to control
Procedure: After finishing culture, the plate was washed with distilled water, and 50 μl/well of 5% sodium hypochlorite was added to the plate. The plate was let alone for 5 min, washed again with distilled water to remove the adherent cells, and dried at room temperature. Then, the area of formed resorption pits was calculated by means of Image Pro Plus software (Media Cybernetics Ver. 3.0).

MG-63 cells = test: Cytotoxicity test against osteoblast (MTT); type: cell-based, human
Procedure: (§1) In order examine the toxicities of the compounds of the Examples against osteoclast pregenitors, pregenitor cells were aliquotted onto a 96-well microplate at a density of 2×10^5 cells per well, treated with 2, 4 and 8 μM of the test compounds, respectively, and cultured for 48 hrs in α-MEM supplemented with 20 ng/ml of M-CSF (Peprotech, USA) using 37° C. incubator (5% CO2). At 3 hrs before the culture was finished, 50 μl of MTT (3-(4,5-dimethylthiazol-2-yl)-2,5-diphenyltetrazolium bromide) solution (50 μg/ml) was added to each well. Upon completion of the cell culture, the supernatant was removed, and the precipitated dye was reacted with 100 μl of isopropanol/0.04 N HCl at room temperature for 30 min to dissolve it. The absorbances of the wells were measured at 550 nm, and the relative absorbance of each well relative to that of the control (set as 100) is shown in Table 6.
In order to examine the toxicity of the compounds of the Examples against osteoblasts, human osteosarcoma-derived cell line, MG-63 (ATCC No. CRL-1427) cells were treated with 0.1, 0.3, 1.0 and 3.0 μM of the compounds of the Examples, and cultured in DMEM supplemented with 10% FBS (fetal bovine serum).

[3] = system: osteoclast pregenitor cells; test: Cytotoxicity against osteoclast pregenitor (MTT); type: cell-based, mice; conditions: 48 hrs, absorbance at 550 nm
Procedure: as §1

[4] = In vivo pharmacokinetics using female mice (serum concentration, HPLC)
Procedure: Female mice each weighing […] were divided into groups of 5 mice each. The mice were anesthetized with ether, catheterized in their femoral artery and vein, respectively, and administered with 0.5 mg/kg body weight of compounds 234 and 274, and 5 mg/kg body weight of compounds 388, 404 and 415, respectively, via intravenous injection. Alternatively, 15 mg/kg body weight of compound 274 and 10 mg/kg body weight of compound 234 were orally administered to the mice.
At 0, 5, 10, 15 and 30 minutes and 1, 2, 4, 6, 9 and 12 hours after the intravenous injection, or at 0, 10, 20 and 40 minutes and 1, 2, 4, 6, 9 and 12 hours after the oral administration, 0.3 ml blood samples were taken from the mice through femoral artery. The blood samples were kept on an ice bath for 30 minutes and centrifuged at 3,000 rpm for 10 minutes to obtain a supernatant (serum). The supernatant samples were stored at −20° C.
Standard solution: Compounds 234, 274, 388, 404 and 415 were respectively dissolved in methanol to a concentration of 1 mg/ml to obtain stock solutions. The stock solutions were diluted with methanol to obtain standard solutions having concentrations of 40, 20, 10, 2, 1, 0.5, 0.2, 0.05 and 0.02 μg/ml, respectively.
Standard calibration curve: A stand calibration curve was prepared by employing calibration concentrations of 0.002, 0.005, 0.02, 0.05, 0.1, 0.2, 1, 2 and 4 μg/ml.
10 μl each of the standard solutions prepared above was added to 100 μl of normal serum sample and diluted 10 times. 250 μl of acetonitrile was added to the resulting dilution and the mixture was centrifuged for 10 minutes to obtain a supernatant. 300 μl of the supernatant was dried by evaporation under a nitrogen atmosphere and reconstituted by adding 50 μl of methanol. 20 μl of the resulting solution was analyzed by HPLC to prepare a standard calibration curve. HPLC was performed with Shimadzu ODS2 column (4.6×250 mm, 5 μm by employing a mixture of methanol/water (90/10 (v/v)) as the mobile phase at a flow rate of 1.2 ml/min, and measuring the absorbance at 240 nm.
Extraction: 100 μl of the serum sample obtained in (4-2-1) was put into a 1 ml microtube and 10 μl of methanol was added thereto. 250 μl of acetonitrile was added to the microtube and the mixture was centrifuged for 10 minutes to obtain a supernatant. 300 μl of the supernatant was dried by evaporation under a nitrogen atmosphere and reconstituted by adding 50 μl of methanol. 20 μl of the resulting solution was analyzed by the HPLC method as above.
Average concentrations of the compounds in the serum samples were plotted in a semi-log scale against the time lapsed after the administration, and the pharmacokinetic parameters were determined as a non-compartment open model by employing WinNonlin® program (Pharsight Corporation).

Compound | One-hour stability [2] [%] | LD50 (rats; PO) | LD50 (rats; SC) [mg/kg body weight] | Reduction (%) of the resorption pit area of osteoclasts (osteoclasts; 0.3 uM) [%] | Reduction (%) of the resorption pit area of osteoclasts (osteoclasts; 1 uM) [%] | Reduction (%) of the resorption pit area of osteoclasts (osteoclasts; 3 uM) [%] | Osteoclast formation inhibitory effects (%) ([1]; 0.3 μM) | Osteoclast formation inhibitory effects (%) ([1]; 1.0 μM) | Osteoclast formation inhibitory effects (%) ([1]; 3.0 μM) | Half-life [2] [h] | relative absorbance relative to that of the control (set as 100), MTT (MG-63 cells; 0.33 uM) | relative absorbance relative to that of the control (set as 100), MTT (MG-63 cells; 1 uM) | relative absorbance relative to that of the control (set as 100), MTT (MG-63 cells; 3 uM) | relative absorbance relative to that of the control (set as 100), MTT (MG-63 cells; 0.11 uM) | also measured
CO/C=C(/C(=O)OC)c1ccc(Cl)cc1COc1ccc(OCC2CC2)cc1 | 70 | 100-300 mg/kg body weight | 5 | 100 | 100 | 100 |  |  |  |  |  |  |  |  | inhibition at 0.3 µM ([1]; Mus musculus, Osteoclast, 192 h, 0.3 μM, read-out: Osteoclast formation inhibitory effects (%)): 98%; inhibition at 1 µM ([1]; Mus musculus, Osteoclast, 192 h, 1.0 μM, read-out: Osteoclast formation inhibitory effects (%)): 100%; inhibition at 3 µM ([1]; Mus musculus, Osteoclast, 192 h, 3.0 μM, read-out: Osteoclast formation inhibitory effects (%)): 100%; half-life at 20 µM ([2]; liver microsomes): > 3 h
CCCCCCOc1cccc(/C(C)=N/OCc2ccccc2/C(=C\OC)C(=O)OC)c1 [compound 15, (E)-methyl 2-(((({1E}-1-(3-(n-hexyloxy)phenyl)ethylidene)amino)oxy)methyl)phenyl-3-methoxyacrylate] | 33 | >2000 mg/kg body weight | >50 | 41 | 57 | 93 | 92 | 100 | 100 | 0.615 | 105 | 85 | 76 |  | 
C=CCOc1ccc(OCc2ccccc2/C(=C\OC)C(=O)OC)cc1 [compound 179] | 70 | 500 mg/kg body weight | 42 | 86 | 100 | 100 | 84 | 100 | 100 | >3 | 111 | 108 | 106 | 117 | 
C=CCOc1cccc(OCc2ccccc2/C(=C\OC)C(=O)OC)c1 [compound 211] | 60 | 500 mg/kg body weight | 51 | 96 | 100 | 100 | 23 | 96 | 100 | 1.77 | 101 | 105 | 106 | 103 | relative absorbance relative to that of the control (set as 100), MTT ([3]; 2 uM): 88; relative absorbance relative to that of the control (set as 100), MTT ([3]; 4 uM): 103; relative absorbance relative to that of the control (set as 100), MTT ([3]; 8 uM): 103
CO/C=C(/C(=O)OC)c1ccccc1COc1cccc(OCCN2CCOCC2)c1 [compound 234] | 83 | 100-300 mg/kg body weight | 7 | 95 | 100 | 100 | 25 | 100 | 100 | >3 | 98 | 115 | 97 |  | AUC (area under the curve of blood concentration versus time) ([4]; I.V.): 477.6 ± 96.4 µg·h/mL; CL (clearance) ([4]; I.V.): 1.1 ± 0.2 mL/h; Half-life ([4]; I.V.): 10.6 ± 4.8 h; Vd (volume of distribution) ([4]; I.V.): 0.0152 ± 0.0052 L/kg; AUC (area under the curve of blood concentration versus time) ([4]; Oral): 680.4 ± 426.2 µg·h/mL; CL (clearance) ([4]; Oral): 19.5 ± 10.6 mL/h; Half-life ([4]; Oral): 12.8 ± 7.7 h; Vd (volume of distribution) ([4]; Oral): 0.3544 ± 0.2456 L/kg; bioavailability ([4]; oral versus I.V.): 35.4%
C=CCOc1ccc(OCc2cc(Cl)ccc2/C(=C\OC)C(=O)OC)cc1 [compound 264] | 80 | 269 mg/kg body weight | 25 | 100 | 100 | 100 | 98 | 100 | 100 | >3 | 107 | 104 | 92 | 103 | 
